Data taken from patent US12116388B2, “Amylin receptor agonists” (Novo Nordisk A/S, priority 2022, dated 2024).
pEC50: −log10 of the molar value. Starred links: 1 amine or outer side, 2 acyl side, 3 side chain; linkers in the order of their positions; H or OH if unused. Residues, ends and D or L forms follow the SMILES beside them. Groups on a side chain read outwards from the residue. *: point of attachment. C20 diacid = O=C(O)CCCCCCCCCCCCCCCCCCC(=O)*; C18 diacid = O=C(O)CCCCCCCCCCCCCCCCC(=O)*; γGlu = O=C(O)[C@H](CCC(=O)[*:2])N[*:1]

How the values were obtained:
[1] = molecular target: T1, human amylin receptor (hAMYR3) (Homo sapiens, UniProt O60896+P30988); test: Human amylin receptor (hAMYR3) in vitro potency assay, CRE-luciferase reporter in BHK cells; format: cell-based; conditions: BHK hAMYR3/CRE-Luc cells, 3 hours incubation, assay buffer with 1% ovalbumin
T1 construct: host or cells: BHK (Baby Hamster Kidney), Hollex-1 cell line further transfected with RAMP3
T1 sequence (O60896 24-148, one chain of several): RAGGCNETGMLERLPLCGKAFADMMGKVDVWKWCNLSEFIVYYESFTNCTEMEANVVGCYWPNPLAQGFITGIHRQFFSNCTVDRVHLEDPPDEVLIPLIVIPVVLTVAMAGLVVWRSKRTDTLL
In short: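 BHK cells stably expressing human calcitonin receptor (a) plus RAMP3 and a CRE-luciferase reporter, seeded overnight, then exposed to 7-point 7-fold dilutions (often from ~10 nM) in DMEM/HEPES buffer with 1% ovalbumin for 3 h at 37 °C. Luciferase luminescence read after SteadyLite Plus addition.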

[2] = molecular target: T2, human calcitonin receptor (hCTR) (Homo sapiens, UniProt P30988); test: Human calcitonin receptor (hCTR) in vitro potency assay, CRE-luciferase reporter in BHK cells; format: cell-based; conditions: BHK hCTR/CRE-Luc cells, 3 hours incubation, assay buffer with 1% ovalbumin; read-out: hCalcR potency, EC50
T2 construct: host or cells: BHK (Baby Hamster Kidney), Hollex-1 cell line
T2 sequence (P30988 25-474): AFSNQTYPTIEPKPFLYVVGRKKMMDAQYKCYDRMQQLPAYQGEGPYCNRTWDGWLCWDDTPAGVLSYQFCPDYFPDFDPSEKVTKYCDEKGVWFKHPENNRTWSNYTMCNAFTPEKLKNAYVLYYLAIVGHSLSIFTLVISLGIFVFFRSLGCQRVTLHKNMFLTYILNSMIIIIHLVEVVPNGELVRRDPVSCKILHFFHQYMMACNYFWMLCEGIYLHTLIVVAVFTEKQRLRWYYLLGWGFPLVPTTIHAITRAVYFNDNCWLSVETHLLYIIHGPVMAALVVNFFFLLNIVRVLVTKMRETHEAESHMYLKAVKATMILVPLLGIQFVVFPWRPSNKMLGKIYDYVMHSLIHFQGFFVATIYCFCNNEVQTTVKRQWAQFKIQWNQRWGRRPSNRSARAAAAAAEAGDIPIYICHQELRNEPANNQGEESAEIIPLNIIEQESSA
In short: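 BHK cells stably co-expressing human calcitonin receptor and a CRE-luciferase reporter, seeded the day before, were exposed to 7-fold serial dilutions (7 concentrations, often starting near 10 nM) in DMEM/HEPES/1% ovalbumin buffer for 3 h at 37 °C. Luminescence was then read after SteadyLite Plus addition.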

pEC50 [1]	pEC50 [2]	SMILES
11.98	11.85	CC[C@H](C)[C@H](NC(=O)[C@H](C)NC(=O)CNC(=O)[C@H](Cc1ccccc1)NC(=O)[C@@H]1CCCN1C(=O)[C@H](CC(=O)O)NC(=O)[C@H](CO)NC(=O)[C@H](CO)NC(=O)[C@H](Cc1c[nH]cn1)NC(=O)[C@H](Cc1c[nH]cn1)NC(=O)[C@H](CC(C)C)NC(=O)[C@H](Cc1ccccc1)NC(=O)[C@H](CCC(=O)O)NC(=O)[C@H](C)NC(=O)[C@H](CC(C)C)NC(=O)[C@H](CCCNC(=N)N)NC(=O)[C@H](C)NC(=O)[C@@H](NC(=O)[C@H](CCC(N)=O)NC(=O)[C@H](C)NC(=O)[C@@H](NC(=O)[C@H](CO)NC(=O)[C@H](CC(C)C)NC(=O)[C@H](Cc1c[nH]cn1)NC(=O)[C@H](CO)NC(=O)[C@H](C)NC(=O)CC[C@H](NC(=O)CCCCCCCCCCCCCCCCCCC(=O)O)C(=O)O)[C@@H](C)O)[C@@H](C)O)C(=O)N1CCC[C@H]1C(=O)N[C@@H](CO)C(=O)N[C@@H](CO)C(=O)N[C@H](C(=O)N[C@@H](CC(=O)O)C(=O)N[C@H](C(=O)NCC(=O)N1CCC[C@H]1C(=O)N[C@@H](CC(=O)O)C(=O)N[C@H](C(=O)N1CCC[C@H]1C(N)=O)[C@@H](C)O)C(C)C)[C@@H](C)O [Compound 39, N^1-[(4S)-4-carboxy-4-(19-carboxynonadecanoylamino)butanoyl]-[Ala1,Ser2,His3,Leu4,Ser5,Ala7,Gln8,Ala10,Glu14,His17,Asp21,Pro22,Pro27,Asp31,Pro34,Asp35,Pro37]-human amylin] ({C20 diacid-γGlu}-ASHLSTAQTARLAEFLHHSSDPFGAIPSSTDVGPDTP-NH2)
11.68	11.56	CC[C@H](C)[C@H](NC(=O)[C@@H]1CCCN1C(=O)CNC(=O)[C@H](Cc1ccccc1)NC(=O)[C@H](Cc1c[nH]cn1)NC(=O)[C@H](Cc1c[nH]cn1)NC(=O)[C@H](CC(C)C)NC(=O)[C@H](Cc1ccccc1)NC(=O)[C@H](CCC(=O)O)NC(=O)[C@H](C)NC(=O)[C@H](CC(C)C)NC(=O)[C@H](CCCNC(=N)N)NC(=O)[C@H](C)NC(=O)[C@@H](NC(=O)[C@H](CCC(N)=O)NC(=O)[C@H](C)NC(=O)[C@@H](NC(=O)[C@H](CO)NC(=O)[C@H](CC(C)C)NC(=O)[C@H](Cc1c[nH]cn1)NC(=O)[C@H](CO)NC(=O)[C@H](C)NC(=O)CC[C@H](NC(=O)CCCCCCCCCCCCCCCCC(=O)O)C(=O)O)[C@@H](C)O)[C@@H](C)O)C(=O)N[C@@H](CC(C)C)C(=O)N1CCC[C@H]1C(=O)N1CCC[C@H]1C(=O)N[C@H](C(=O)N[C@@H](CC(=O)O)C(=O)N[C@H](C(=O)NCC(=O)N[C@@H](CO)C(=O)N[C@@H](CCC(=O)O)C(=O)N[C@H](C(=O)N[C@@H](Cc1ccc(O)cc1)C(N)=O)[C@@H](C)O)C(C)C)[C@@H](C)O [Compound 42, N^1-[(4S)-4-carboxy-4-(17-carboxyheptadecanoylamino)butanoyl]-[Ala1,Ser2,His3,Leu4,Ser5,Ala7,Gln8,Ala10,Glu14,His17,Pro25,Pro28,Pro29,Asp31,Glu35],des-(19-22)-human amylin] ({C18 diacid-γGlu}-ASHLSTAQTARLAEFLHHFGPILPPTDVGSETY-NH2)
11.97	11.75	CC[C@H](C)[C@H](NC(=O)[C@@H]1CCCN1C(=O)CNC(=O)[C@H](Cc1ccccc1)NC(=O)[C@H](Cc1c[nH]cn1)NC(=O)[C@H](Cc1c[nH]cn1)NC(=O)[C@H](CC(C)C)NC(=O)[C@H](Cc1ccccc1)NC(=O)[C@H](CCC(=O)O)NC(=O)[C@H](C)NC(=O)[C@H](CC(C)C)NC(=O)[C@H](CCCNC(=N)N)NC(=O)[C@H](C)NC(=O)[C@@H](NC(=O)[C@H](CCC(N)=O)NC(=O)[C@H](C)NC(=O)[C@@H](NC(=O)[C@H](CO)NC(=O)[C@H](CC(C)C)NC(=O)[C@H](Cc1c[nH]cn1)NC(=O)[C@H](CO)NC(=O)[C@H](C)NC(=O)CC[C@H](NC(=O)CCCCCCCCCCCCCCCCC(=O)O)C(=O)O)[C@@H](C)O)[C@@H](C)O)C(=O)N[C@@H](CC(C)C)C(=O)N1CCC[C@H]1C(=O)N1CCC[C@H]1C(=O)N[C@H](C(=O)N[C@@H](CC(=O)O)C(=O)N[C@H](C(=O)NCC(=O)N[C@@H](CO)C(=O)N[C@@H](CCC(=O)O)C(=O)N[C@H](C(=O)N1CCC[C@H]1C(N)=O)[C@@H](C)O)C(C)C)[C@@H](C)O [Compound 43, N^1-[(4S)-4-carboxy-4-(17-carboxyheptadecanoylamino)butanoyl]-[Ala1,Ser2,His3,Leu4,Ser5,Ala7,Gln8,Ala10,Glu14,His17,Pro25,Pro28,Pro29,Asp31,Glu35,Pro37],des-(19-22)-human amylin] ({C18 diacid-γGlu}-ASHLSTAQTARLAEFLHHFGPILPPTDVGSETP-NH2)
11.80	11.60	CC[C@H](C)[C@H](NC(=O)[C@@H]1CCCN1C(=O)CNC(=O)[C@H](Cc1ccccc1)NC(=O)[C@H](CC(N)=O)NC(=O)[C@H](CC(N)=O)NC(=O)[C@H](CO)NC(=O)[C@H](CO)NC(=O)[C@H](Cc1c[nH]cn1)NC(=O)[C@H](CCCNC(=N)N)NC(=O)[C@H](CC(C)C)NC(=O)[C@H](Cc1ccccc1)NC(=O)[C@H](CCC(=O)O)NC(=O)[C@H](C)NC(=O)[C@H](CC(C)C)NC(=O)[C@H](CCCNC(=N)N)NC(=O)[C@H](CCC(N)=O)NC(=O)[C@@H](NC(=O)[C@H](C)NC(=O)[C@@H]1CSSC[C@H](NC(=O)[C@H](CCCCN)NC(=O)CC[C@H](NC(=O)CCCCCCCCCCCCCCCCCCC(=O)O)C(=O)O)C(=O)N[C@@H](CC(N)=O)C(=O)N[C@@H]([C@@H](C)O)C(=O)N[C@@H](C)C(=O)N[C@@H]([C@@H](C)O)C(=O)N1)[C@@H](C)O)C(=O)N[C@@H](CC(C)C)C(=O)N1CCC[C@H]1C(=O)N1CCC[C@H]1C(=O)N[C@H](C(=O)N[C@@H](CC(N)=O)C(=O)N[C@H](C(=O)NCC(=O)N[C@@H](CO)C(=O)N[C@@H](CC(N)=O)C(=O)N[C@H](C(=O)N1CCC[C@H]1C(N)=O)[C@@H](C)O)C(C)C)[C@@H](C)O [cagrilintide, reference compound]

SMILES	pEC50 [1]	pEC50 [2]
CC[C@H](C)[C@H](NC(=O)[C@H](CCCCNC(=O)CC[C@H](NC(=O)CCCCCCCCCCCCCCCCC(=O)O)C(=O)O)NC(=O)CNC(=O)[C@H](Cc1ccccc1)NC(=O)[C@@H]1CCCN1C(=O)[C@H](CC(=O)O)NC(=O)[C@H](CO)NC(=O)[C@H](CO)NC(=O)[C@H](Cc1c[nH]cn1)NC(=O)[C@H](Cc1c[nH]cn1)NC(=O)[C@H](CC(C)C)NC(=O)[C@H](Cc1ccccc1)NC(=O)[C@H](CCC(=O)O)NC(=O)[C@H](C)NC(=O)[C@H](CC(C)C)NC(=O)[C@H](CCCNC(=N)N)NC(=O)[C@H](C)NC(=O)[C@@H](NC(=O)[C@H](CCC(N)=O)NC(=O)[C@H](C)NC(=O)[C@@H](NC(=O)[C@H](CO)NC(=O)[C@H](CC(C)C)NC(=O)[C@H](Cc1c[nH]cn1)NC(=O)[C@H](CO)NC(=O)[C@H](C)NC(C)=O)[C@@H](C)O)[C@@H](C)O)C(=O)N1CCC[C@H]1C(=O)N[C@@H](CO)C(=O)N[C@@H](CO)C(=O)N[C@H](C(=O)N[C@@H](CC(=O)O)C(=O)N[C@H](C(=O)NCC(=O)N1CCC[C@H]1C(=O)N[C@@H](CC(=O)O)C(=O)N[C@H](C(=O)N1CCC[C@H]1C(N)=O)[C@@H](C)O)C(C)C)[C@@H](C)O [Compound 40, N^1-acetyl,N{Epsilon-25}-[(4S)-4-carboxy-4-(17-carboxyheptadecanoylamino)butanoyl]-[Ala1,Ser2,His3,Leu4,Ser5,Ala7,Gln8,Ala10,Glu14,His17,Asp21,Pro22,Lys25,Pro27,Asp31,Pro34,Asp35,Pro37]-human amylin] (Ac-ASHLSTAQTARLAEFLHHSSDPFGK([γGlu-C18 diacid])IPSSTDVGPDTP-NH2)	11.86	11.89
